Assay results taken from patent US20150157651A1, “TRI-SUBSTITUTED GLYCEROL COMPOUNDS FOR USE IN THE TREATMENT OF CLINICALLY ISOLATED SYNDROME AND/OR MULTIPLE SCLEROSIS” (ALPHAPTOSE GMBH, priority 2012, published 2015).
≈ marks a conversion by molar mass, not a printed value. Entries after “also recorded” stand apart in the source; their conditions may differ.

Tests used:
non-stimulated PBMCs = experiment: Flow cytometry of non-stimulated PBMCs for cell death; format: cell-based, human; settings: 10 μg/ml or 33.3 μg/ml, 24 h
human CD4+ T cells [1] = experiment: Whole genome expression (microarray) analysis of CD4+ T cells; format: cell-based
Method: FIG. 2: Modulated gene expression in CD4+ T cells upon culture with edelfosine.
Enriched CD4+ T cells from PBMCs of two age-matched female as well as two age-matched male donors were incubated for 30 h without edelfosine, in presence of 3.3 μg/ml edelfosine and 10 μg/ml edelfosine, respectively. In parallel approaches, cells were incubated with beads coated with antibodies against CD2, CD3 and CD28 or with coated beads and 3.3 μg/ml edelfosine. Cell-culture supernatant was saved and cells were subjected to RNA isolation, cDNA synthesis and microarray analysis for gene expression. Comparative gene-expression analysis was performed according to FIG. 2.
In general, edelfosine modulated the gene expression of human CD4+ T cells in the case of stimulation but also if no exogenous stimulus was added, although to a limited extent. […] Therefore, further analysis of the unstimulated cells focused on the 10 μg/ml edelfosine approach. Next, the database for annotation, visualization and integrated discovery (DAVID)-bioinformatics database was used to annotate the differentially expressed genes to functional themes/groups and assign to them so-called gene-ontology (GO) terms for specific pathways of cellular function (314). The GO project is an effort to consistently describe gene products in databases. DAVID, as a tool, is designed to allow systematical mapping of large numbers of genes in lists associated with biological annotations (e.g. GO terms). Three structured controlled vocabularies (ontologies) have been developed to describe gene products in a species-independent manner: the associated biological process (BP), cellular components and molecular functions. The GOTERM_BP_FAT set which has been specifically designed by the DAVID consortium was selected to filter the broadest terms in order to prevent overshadowing of more specific terms. FIG. 3 summarizes the top-3 GO-terms which were selected due to their highest GO P-values. As shown therein, the addition of […] edelfosine was leading to an upregulation of genes associated with apoptosis and cell death in the unstimulated setting, a finding that was in accordance with the previously described analysis for annexin V and PI after edelfosine incubation.

[2] = tested on: lymph node cells of SJL mice; experiment: Ex vivo thymidine proliferation of lymph node cells from treated immunized mice; format: in vivo
Method: FIG. 7 describes the impact of edelfosine on proliferation of antigen-specific cells. To examine the influence of edelfosine on antigen-specific cells in the periphery lymph nodes from SJL mice were prepared for thymidine proliferation assays 9 days after immunization. Cells were restimulated ex vivo by addition of mitogenic- (a), polyclonal or disease-relevant (PLP(139-151); b) antigen.

[3] = tested on: relapsing-remitting EAE (RR-EAE) model in SJL mice; experiment: Relapsing-remitting EAE disease course, clinical scoring; format: in vivo
Text: FIG. 6 describes the influence of edelfosine on EAE disease course. Our aim was to study the effect of edelfosine on the immune system in the context of experimental autoimmune encephalomyelitis (EAE), an animal model of multiple sclerosis. In the course of EAE CD4+ T cell and mononuclear cell inflammation is followed by axonal damage and demyelination in the central nervous system (CNS) which results in progressive hind-limb paralysis. In order to analyze the anti-inflammatory properties of edelfosine we have used the relapsing-remitting EAE (RR-EAE) model in SJL mice. We also examined the edelfosine impact on human T-cell proliferation. For EAE induction SJL mice were immunized with the proteolipid PLP(139-151). Edelfosine was adminstered by intraperitoneal injection from day 0 at a daily basis. EAE disease course was assessed by clinical scoring in a 0-5 scale until day 40 (*P<0.05, 2-way ANOVA, n=7). To investigate the therapeutic effect of edelfosine on RR-EAE disease course, SJL mice were immunized and treatment of the mice was started at disease onset by intraperitoneal injection from day 11 at a daily basis until day 45.

human PBMCs [4] = experiment: PBMC proliferation over seven days without addition of stimulus; format: cell-based; settings: 3.3 μg/ml edelfosine, up to seven days
Method: (§1) FIG. 1: Human T-cell proliferation was affected by edelfosine. […] (B) The inhibitory effect of edelfosine was also observed if the drug was added to already activated, proliferating T cells. […] (C) Preincubation of PBMCs with at least 3.3 μg/ml edelfosine interfered with the cells' capacity to proliferate upon PHA stimulation. No effect was detected in preconditioned, but unstimulated cells (experiments A-C: sample size n=3 donors, each approach was seeded in triplicates). (D) 1 μg/ml edelfosine or higher concentrations profoundly diminished proliferation in MBP(83-99)-specific TCLs (T-cell line). One representative TCL of two is shown. Cells were incubated in quadruplicates. (E) PBMCs were cultured without addition of stimulus. Proliferation was detectable after seven days. […] Bars represent mean values±SEM, *P<0.05, **P<0.01 and ***P<0.001 after post-hoc analysis.
In an additional approach PBMCs were incubated for up to seven days without the addition of a stimulus. Cells were cultured in medium alone, in presence of anti-HLA-DR- and anti-MHC class I-blocking antibody or with 3.3 μg/ml edelfosine.

human PBMCs [5] = experiment: Proliferation of already PHA-activated, proliferating PBMCs, edelfosine added two days later; format: cell-based
Method: as §1
The second approach aimed at characterizing the edelfosine influence on already proliferating cells. For that reason cells were activated with PHA, and edelfosine was added two days later.

[6] = tested on: CNS-infiltrating cells of EAE SJL mice; experiment: CNS cellular infiltration in EAE acute phase, flow cytometry; format: in vivo; settings: 15 days after EAE induction
Method: FIG. 8 describes the effect of edelfosine on CNS cellular infiltration in EAE acute phase. SJL mice were immunized with […]. 15 days after EAE induction CNS cells were analyzed by flow cytometry. The administration of 10 mg/kg edelfosine reduced the absolute number of CNS-infiltrating CD45+ leukocytes (a). […] We found a significant treatment effect with a significant difference between 10 mg/kg edelfosine and PBS treatment in CD4+ cells (*P<0.05 compared to PBS control group, post-hoc comparison after 1-way ANOVA, n=4). Similar differences were found for T cells in spleens at day 9 after immunization.

human PBMCs [7] = experiment: PBMC proliferation after 24 h preincubation with edelfosine, washing, then PHA stimulation; format: cell-based
Method: as §1
Cells were washed extensively to remove edelfosine followed by further culturing for three days. In control approaches cells were incubated without PHA. […] 3.3 μg/ml edelfosine or higher interfered with the cellular capacity to proliferate upon stimulation with PHA.

[8] = tested on: human peripheral blood mononuclear cells (PBMCs); experiment: PBMC proliferation, edelfosine added on cell seeding, with or without PHA; format: cell-based
Method: as §1
FIG. 9 describes the influence of edelfosine on human T cell proliferation. […] PBMCs were used for the examination of concentration-dependent edelfosine impact on human T cell activation and proliferation (b, 72 h of co-culture). A reduction in proliferation was already detectable upon addition of 1.0 μg/ml edelfosine (**P<0.01, n=3). Enriched CD4+ T cells from PBMCs of both two age-matched female and male donors were incubated for 30 h in presence of 3.3 μg/ml edelfosine. Cells were stimulated with beads coated with antibodies against CD2, CD3 and CD28.
In order to characterize the influence of edelfosine on the proliferation of human T cells, peripheral blood mononuclear cells (PBMCs) were first stimulated with a mitogenic stimulus, PHA (phytohemagglutinin) Proliferation was analyzed after three days of culture. First, the impact of edelfosine on T-cell activation and proliferation was investigated by adding edelfosine immediately as the cells were seeded. Cells were incubated without or in the presence of PHA. […] Here, the half maximal inhibitory concentration (IC50) was determined by nonlinear regression.

human CD4+ T cells [9] = experiment: Whole genome expression (microarray) analysis of CD4+ T cells; format: cell-based; settings: unstimulated cells, 10 μg/ml, 30 h
[10] = cells stimulated with anti-CD2/CD3/CD28 beads, 3.3 μg/ml, 30 h
[11] = unstimulated cells, 10 μg/ml, 30 h

CCCCCCCCCCCCCCCCCCOC[C@H](COP(=O)([O-])OCC[N+](C)(C)C)OC (racemic) [edelfosine, 1-O-octadecyl-2-O-methyl-sn-glycero-3-phosphocholine]
cell death in non-stimulated PBMCs (non-stimulated PBMCs): induction of non-apoptotic cell death
expression of cell cycle-associated genes (human CD4+ T cells [1]; [10]): downmodulation; also recorded: down-regulated
expression of genes associated with apoptosis and cell death (human CD4+ T cells [1]; [10]): upregulation
expression of immune and virus response-associated, type I interferon-related genes (human CD4+ T cells [1]; [10]): consistent and profound upregulation; also recorded: upregulated
number of downregulated genes assigned to antigen processing and presentation (SLR≦−0.8) (human CD4+ T cells [1]; unstimulated cells, 10 μg/ml): 25
expression of immune response and antigen processing and presentation (MHC class II) genes (human CD4+ T cells [1]; [11]): downmodulation; also recorded: downregulated
number of upregulated genes (SLR≧0.8) (human CD4+ T cells [1]; [11]): 11
proliferative function of lymph node cells on ex vivo restimulation ([2]; 9 days after immunization, edelfosine-treated mice): retained their proliferative function
proliferation on re-activation with PLP peptide ([2]; 9 days after immunization, ex vivo PLP restimulation): edelfosine dose-dependent proliferation
SI compared to PBS treatment of mice ([2]; antigen-induced proliferation, edelfosine-treated mice): increased SI
EAE disease course ([3]; prophylactic, 10 mg/kg daily intraperitoneal from day 0): EAE amelioration
EAE disease course ([3]; therapeutic, 10 mg/kg daily intraperitoneal from disease onset (day 11)): EAE amelioration
effect on proliferation without stimulus (human PBMCs [4]): reduced to non-detectable levels; also recorded: inhibited cellular proliferation
edelfosine concentration giving efficient reduction of proliferation (human PBMCs [5]; PHA-activated cells, edelfosine added two days later): ≥ 3.3 µg/mL
edelfosine concentration giving significant reduction of proliferation (human PBMCs [5]; unstimulated controls): 33.3 µg/mL
absolute number of CNS-infiltrating CD45+ leukocytes ([6]; 10 mg/kg): reduced
frequencies of CD8+ T cells ([6]; 10 mg/kg): not affected
infiltrating CD4+ T cells ([6]; 10 mg/kg): relative decrease
activation of caspase 3 in CNS CD4+ T cells ([6]; significant for 10 mg/kg versus PBS): dose-dependent activation; also recorded: increased
edelfosine concentration up to which cells retain proliferative function (human PBMCs [7]; 24 h preincubation, washed, PHA stimulation, three days): up to 1 μg/ml
effect on proliferation (human PBMCs [7]; preconditioned but unstimulated cells): no significant reductions of proliferation; also recorded: No effect
IC50 ([8]; Homo sapiens, PBMC, 72 h, read-out: half maximal inhibitory concentration (IC50) of proliferation, PHA-stimulated cells, edelfosine added at seeding, three days of culture): 0.64 ± 0.1 µg/mL (≈ 1.22 µM)
fold lower concentration at which PHA-activated cells are susceptible compared to cells without PHA ([8]; PHA-activated versus unstimulated PBMCs): 10 fold
edelfosine concentration at which a reduction in proliferation was detectable ([8]; unstimulated controls, added at seeding, three days): ≥ 10 µg/mL
expression of apoptosis- and cell death-associated genes (human CD4+ T cells [9]): upregulation
